This is an account of results in US4198429A, “Esters of 5-methyl-10,11-dihydroprostaglandin-A1” (Hoechst Aktiengesellschaft, priority 1976, dated 1980).

What all share (assay type): in vivo, Guinea pig
In one assay the test system is bronchial muscles. Kind of assay: Bronchospasmolytic effect and its duration, modified Konzett-Rossler test. Particulars: male white Guinea pigs, anesthesized; V. jugularis; asthmogenic agent not specified. Here is the method:
(§1) To test the bronchospasmolytic activity of the compounds of the invention the following experiments were carried through:
(§2) TEST ACCORDING TO KONZETT-ROSSLER
(§3) To test the bronchospasmolytic activity the respiratory volume was measured by the method of Konzett-Rossler, according to which the air volume is measured which is taken up by the lung when the maximum inflation pressure is maintained constant and a constant volume is offered by high pressure respiration. Capacity variations in the respiratory tract result in an increase or decrease of the amount of air taken up by the lung under the given constant inflation pressure.
(§4) As test animals male white Guinea pigs having a weight of from 400 to 500 grams were used which had been anesthesized with 10 mg/kg i.p. of Evipan and 200 mg/kg i.p. of urethane. The substance to be tested was administered by means of a catheter in the V. jugularis. The positive pressure respiration depended on the normal respiratory volume of the test animal and could be adapted suitably and readily to the individual test animal. In the tests carried through the pressure indicated by Rosenthal and Dervinis of 80 mm H2 O was used. During the recovery phase after a bronchospastic reaction the flexible hose leading to the water manometer was clamped off for a short period of time in order to open deflating lung segments. The respiration frequency amounted to 64-72 per minute. The respiratory volume was measured according to the slightly modified Konzett-Rossler method wherein the piston recorder was replaced by a back-pressure tube according to Fleisch (type 0000). The occuring pressure difference was recorded by a difference pressure recorder of the type Statham PM 97 CT. To record the measured values a multi-channel recorder of Messrs. Hellige was used. The substance to be tested was used in the form of a standard solution in absolute alcohol. Directly prior to the start of the test it was diluted to the required final concentration with phosphate buffer (pH 7.4). The asthmogenic solution was prepared with double distilled water.
(§5) As asthmogenic agents histamine dihydrochloride, acetyl choline chloride and sertonine creatinine sulfate were used. To reduce the error resulting from individual differences in the bronchospasm intensity with a uniform dose of asthmogenic agent, the dosage unit was chosen such that an about 70 to 80% decrease of the absorption capacity of the lung was obtained. The experimental data were subjected to the regression analysis according to the probit transformation and the equation of the straight lines of regression y=a+b log x was calculated. In this manner the average inhibition dose (ID50 =the dose which inhibits the effect of the asthmogenic agent to 50% of the initial value) was found. Additionally, the results obtained by carrying out a simple variance analysis in the Duncan Test were compared with the control.

In assay [1] the test system is bronchospasm caused by histamine. Kind of assay: Bronchospasmolytic activity, modified Konzett-Rossler test, histamine-induced bronchospasm. Particulars: dose inhibiting effect of asthmogenic agent to 50% of initial value, male white Guinea pigs, anesthesized, V. jugularis. Here is the method:
as §1, §2, §3, §4, §5

Assay [2] deals with spasm caused by acetylcholine. In words: Bronchospasmolytic activity, modified Konzett-Rossler test, acetylcholine-induced bronchospasm. The settings on record: dose inhibiting effect of asthmogenic agent to 50% of initial value, male white Guinea pigs, anesthesized, V. jugularis. How it is done: as §1, §2, §3, §4
as §5, with “Additionally, the results obtained by carrying out a simple variance analysis in the Duncan Test were compared with the control.” left out

The subject of assay [3] is spasm initiated by serotonin. Kind of assay: Bronchospasmolytic activity, modified Konzett-Rossler test, serotonin-induced bronchospasm. The settings on record: dose inhibiting effect of asthmogenic agent to 50% of initial value, male white Guinea pigs, anesthesized, V. jugularis. Here is the method: as §1, §2, §3
as §4, with “The substance to be tested was used in the form of a standard solution in absolute alcohol. Directly prior to the start of the test it was diluted to the required final concentration with phosphate buffer (pH 7.4). The asthmogenic solution was prepared with double distilled water.” left out
As asthmogenic agents histamine dihydrochloride, acetyl choline chloride and sertonine creatinine sulfate were used. […] The experimental data were subjected to the regression analysis according to the probit transformation and the equation of the straight lines of regression y=a+b log x was calculated. […]

With `CCCCCCCCCCOC(=O)CCCC(C)CC[C@H]1C(=O)CC[C@@H]1/C=C/[C@@H](O)CCCCC` (stereo partly shown) [Example 2, 5-Methyl-10,11-dihydroprostaglandin-A1 n-decyl ester], the duration of effect with bronchial muscles was 30 to 45 min. The molecule also gave an ID50 values histamine in assay [1] of 4.2 ng/animal.

In turn, `CCCCC[C@H](O)/C=C/[C@H]1CCC(=O)[C@@H]1CCC(C)CCCC(=O)OCCCC(C)(C)C` (stereo partly shown) [Example 4] displayed a duration of effect with bronchial muscles of 20 to 25 min. The ID50 values histamine in assay [1] turned out to be 7 ng/animal.

In turn, `CCCCC[C@H](O)/C=C/[C@H]1CCC(=O)[C@@H]1CCC(C)CCCC(=O)O` (stereo partly shown) [comp. II, 5-methyl-10,11-dihydroprostaglandin-A1] registered an ID50 values acetylcholine in assay [2] of 10 ng/animal. Further, the ID50 values histamine in assay [1] is given as 5 ng/animal. Moreover, in assay [3], the ID50 values serotonin was 9 ng/animal.

In turn, `CCCCC[C@H](O)/C=C/[C@H]1CCC(=O)[C@@H]1CCC(C)CCCC(=O)OCCOCC` (stereo partly shown) [Example 7, 5-Methyl-10,11-dihydroprostaglandin-A1-2-ethoxyethyl ester] registered an ID50 values acetylcholine in assay [2] of 0.88 ng/animal. Besides, in the assay on bronchial muscles, the duration of effect was in the range of 10 to 20 min. The same molecule yielded an ID50 values histamine in assay [1] of 0.4 ng/animal. Moreover, the ID50 values serotonin in assay [3] came out at 0.86 ng/animal.

Molecule `CCCCC[C@H](O)/C=C/[C@H]1CCC(=O)[C@@H]1CCC(C)CCCC(=O)OCCCC` (stereo partly shown) [Example 3, 5-Methyl-10,11-dihydroprostaglandin-A1 n-butyl ester] showed an ID50 values acetylcholine in assay [2] of 6.9 ng/animal. Moreover, in the assay on bronchial muscles, the duration of effect was in the range of 15 to 20 min. The same molecule registered an ID50 values histamine in assay [1] of 0.63 ng/animal. Moreover, the ID50 values serotonin in assay [3] is given as 1.2 ng/animal.

`CCCCCCOC(=O)CCCC(C)CC[C@H]1C(=O)CC[C@@H]1/C=C/[C@@H](O)CCCCC` (stereo partly shown) [Example 1, 5-Methyl-10,11-dihydroproxtaglandin-A1 n-hexyl ester] yielded an ID50 values acetylcholine in assay [2] of 3 ng/animal. Moreover, the duration of effect in the assay with bronchial muscles was 30 min. Besides, the ID50 values histamine in assay [1] was found to be 1 ng/animal.

In the assay on bronchial muscles, `CCCCC[C@H](O)/C=C/[C@H]1CCC(=O)[C@@H]1CCC(C)CCCC(=O)OC1CCCCC1` (stereo partly shown) [Example 6, 5-Methyl-10,11-dihydroprostaglandin-A1 cyclohexyl ester] displayed a duration of effect of 60 min. This molecule showed an ID50 values histamine in assay [1] of 7.5 ng/animal.

On to `CCCCC[C@H](O)/C=C/[C@H]1CCC(=O)[C@@H]1CCC(C)CCCC(=O)OCCCc1ccccc1` (stereo partly shown) [Example 9, 5-Methyl-10,11-dihydroprostaglandin-A1-3-phenylpropyl ester], for which, in the assay on bronchial muscles, the duration of effect amounted to 25 min. In assay [1], the ID50 values histamine stood at 1 ng/animal.
